Results taken from BindingDB's records for doi:10.1021/acs.jmedchem.6b01892 (University of Regensburg, 2017).

How the values were obtained:
[1] = Competitive binding affinity to human muscarinic acetylcholine receptor M2 expressed in […] cell homogenates assessed as W84 pIC50 at 0.4 nM after 2 hrs by liquid scintillation counting assay
[2] = Competitive binding affinity to human muscarinic acetylcholine receptor M2 expressed in […] cell homogenates assessed as W84 pIC50 at 1 nM after 2 hrs by liquid scintillation counting assay
[3] = Competitive binding affinity to human muscarinic acetylcholine receptor M2 expressed in […] cell homogenates assessed as W84 pIC50 at 4 nM after 2 hrs by liquid scintillation counting assay
[4] = Competitive binding affinity to human muscarinic acetylcholine receptor M2 expressed in […] cell homogenates assessed as W84 pIC50 at 2 nM after 2 hrs by liquid scintillation counting assay
[5] = Competitive binding affinity to human muscarinic acetylcholine receptor M2 expressed in […] cells assessed as W84 pIC50 at 4 nM after 2 hrs by liquid scintillation counting assay
[6] = Competitive binding affinity to human muscarinic acetylcholine receptor M2 expressed in […] cells assessed as W84 pIC50 at 30 nM after 2 hrs by liquid scintillation counting assay
[7] = Competitive binding affinity to human muscarinic acetylcholine receptor M2 expressed in […] cells assessed as W84 pIC50 at 2 nM after 2 hrs by liquid scintillation counting assay
[8] = Competitive binding affinity to human muscarinic acetylcholine receptor M2 expressed in […] cells assessed as W84 pIC50 at 15 nM after 2 hrs by liquid scintillation counting assay
[9] = Competitive binding affinity to human muscarinic acetylcholine receptor M2 expressed in […] cells assessed as W84 pIC50 at 8 nM after 2 hrs by liquid scintillation counting assay

SMILES | IC50 [1] [nM] | IC50 [2] [nM] | IC50 [3] [nM] | IC50 [4] [nM] | IC50 [5] [nM] | IC50 [6] [nM] | IC50 [7] [nM] | IC50 [8] [nM] | IC50 [9] [nM]
[3H]CC([3H])C(=O)NCc1cc(C(=O)NCCNC(=O)CCc2cn(CCCCC3CCN(CC(=O)N4c5ccccc5NC(=O)c5ccccc54)CC3)cn2)cc(C(=O)NCCNC(=O)CCc2cn(CCCCC3CCN(CC(=O)N4c5ccccc5NC(=O)c5ccccc54)CC3)cn2)c1 (centres undefined) | 2690 | 6610 | 18600 | 10500 | – | – | – | – | –
[3H]CC([3H])C(=O)NCCNC(=O)CCc1cn(CCCCC2CCN(CC(=O)N3c4ccccc4NC(=O)c4ccccc43)CC2)cn1 (centres undefined) | – | – | – | – | 282 | 2090 | 182 | 1350 | 631
